In US7009053B2, “Quinoline derivatives as caspase-3 inhibitor, preparation for producing the same and pharmaceutical composition comprising the same” (Yungjin Pharmaceuticals Co., Ltd., priority 2002, dated 2006):

Biological target: T1, human recombinant caspase-3 enzyme (Homo sapiens, UniProt P42574)
T1 construct: each cDNA encoding p12 and p17 subunits of caspase-3 was PCR-amplified respectively and subcloned into a pET3-a expression vector; made in house; host or cells: E. coli BL21 (DE3), pET3-a vector
T1 sequence (P42574 29-175 limits assumed): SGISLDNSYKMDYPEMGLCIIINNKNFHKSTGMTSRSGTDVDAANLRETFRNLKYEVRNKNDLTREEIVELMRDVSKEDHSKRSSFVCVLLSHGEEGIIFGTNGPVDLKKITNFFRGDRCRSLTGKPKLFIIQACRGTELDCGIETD
T1 sequence (P42574 176-277 limits assumed): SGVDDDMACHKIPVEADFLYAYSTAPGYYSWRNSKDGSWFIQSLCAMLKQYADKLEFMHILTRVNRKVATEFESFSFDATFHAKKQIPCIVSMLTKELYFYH
Assay: Enzyme assay of caspase-3 inhibition (fluorogenic Ac-DEVD-AFC substrate)
Type: biochemical
Details: for IC50: caspase-3, Table 1, tested at 2, 20 or 200 uM, read-out: IC50; for inhibitory activity against caspase-3 (in words): compared to the reference compound
Description: The active form of human recombinant caspase-3 enzyme was prepared from Escherichia coli (E.coli) heterologous expression system as described previously (Rotonda J. et al., Nat Struct Biol 3(7): 617–25, 1996). Briefly, each cDNA encoding p12 and p17 subunits of caspase-3 was PCR-amplified respectively and subcloned into a pET3-a expression vector (Novagen), which was followed by transfection into E. coli strain BL21 (DE3). The bacterial cultures (0.5 liters for each transfectant) were grown at 37° C. until logarithmic phase of cell growth and isopropyl-1-thio-β-D-galactopyranoside (IPTC) (Pharmacia) was then added to a final concentration of 0.5 mM. After 3 hr of incubation, the bacteria were pelleted and lysed in a lysis buffer (20 mM Tris hydrochloride pH 8.0, 1 mM EDTA, 2 mM dithiothreitol (DTT), 100 mM NaCl, 200 ug/ml of lysozyme) through sonication. After centrifugation, the pellets from each transfectants were dissolved in 6 M urea and were mixed and rapidly diluted 50 fold in 100 mM HEPES/KOH (pH 7.5), 10% sucrose, 0.1% CHAPS, 0.5 M NaCl, 10 mM DTT. The concentration of protein was determined with the Bradford method (Bio-Rad), with bovine serum albumin as the standard. To verify whether expected size of proteins were obtained, the cell lysates from each cDNA transfectants were analyzed on 14% SDS PAGE and visualized with Coomassie blue staining.
200 ul of the following assay solution was contained in each well of 96-well plate: 20 mM HEPES/KOH (pH 7.5), 10% sucrose, 10 mM DTT, 0.2 mM EDTA, 0.1% CHAPS, 200 ng of enzymes, and 2.5 uM of the substrate. The fluorogenic substrate […]-Asp-Glu-Val-Asp-7-amino-4-trifluoromethylcoumarin (Ac-DEVD-AFC) was purchased from Sigma (St Louis, Mo.) and dissolved in DMSO as a 2.5 mM stock solution and kept at −20° C. before use.
After 1 hr incubation at 37° C., the release of AFC (7-amino-4-trifluoromethyl-coumarin) was monitored in a fluorometric plate reader (Victor 1420). The excitation and emission wavelengths were 400 nm and 510 nm, respectively. The inhibitory effects of compounds on enzyme activities were determined with 2, 20 or 200 uM concentrations of the test compound run in triplicate tubes, and isotherms from three assays were calculated by computerized nonlinear regression analysis (GraphPad Prism Program, San Diego, Calif.) to yield IC50 values.

| %-Inhibition (caspase-3 activity, at 20 uM) | IC50 | inhibition at 20 µM (caspase-3 activity, at 20 uM) | inhibitory activity against caspase-3 (in words) | Compound |
| --- | --- | --- | --- | --- |
| – | 14.4 µM | 81.7% | – | CCOC(=O)c1cnc2c(N)cccc2c1NCc1ccccc1 [Example 17, 8-Amino-4-benzylamino-quinoline-3-carboxylic acid ethyl ester] |
| – | 14.9 µM | 84.9% | – | CCOC(=O)c1cnc2c(N)cccc2c1NCc1cccc2ccccc12 [Example 19, 8-Amino-4-[(naphthalen-1-ylmethyl)-amino]-quinoline-3-carboxylic acid ethyl ester] |
| – | 13.2 µM | 90.1% | superior activity | CCOC(=O)c1cnc2c(N)cccc2c1NCc1ccccn1 [Example 20, 8-Amino-4-[(pyridin-2-ylmethyl)-amino]-quinoline-3-carboxylic acid ethyl ester] |
| – | 19.2 µM | 78% | – | CCOC(=O)c1cnc2c(N)cccc2c1NCc1cccs1 [Example 21, 8-Amino-4-[(thiophen-2-ylmethyl)-amino]-quinoline-3-carboxylic acid ethyl ester] |
| – | 15.9 µM | 87.8% | – | CCOC(=O)c1cnc2c(N)cccc2c1NCC(C)C [Example 27, 8-Amino-4-isobutylamino-quinoline-3-carboxylic acid ethyl ester] |
| – | 17.6 µM | 85.2% | – | CCOC(=O)c1cnc2c(N)cccc2c1NC(C)C [Example 28, 8-Amino-4-isopropylamino-quinoline-3-carboxylic acid ethyl ester] |
| – | 18.8 µM | 78.8% | – | CCOC(=O)c1cnc2c(N)cccc2c1NCc1ccccc1F [Example 29, 8-Amino-4-(2-fluoro-benzylamino)-quinoline-3-carboxylic acid ethyl ester] |
| – | 19.1 µM | 76.9% | – | CCOC(=O)c1cnc2c(N)cccc2c1NCc1cccc(F)c1 [Example 30, 8-Amino-4-(3-fluoro-benzylamino)-quinoline-3-carboxylic acid ethyl ester] |
| – | 13.5 µM | 92.5% | superior activity | CCOC(=O)c1cnc2c(N)cccc2c1NCCCOC(C)C [Example 31, 8-Amino-4-(3-isopropoxy-propylamino)-quinoline-3-carboxylic acid ethyl ester] |
| – | 16.9 µM | 82.9% | – | CCOC(=O)c1cnc2c(N)cccc2c1NCc1ccccc1OC [Example 32, 8-Amino-4-(2-methoxy-benzylamino)-quinoline-3-carboxylic acid ethyl ester] |
| – | 15.8 µM | 86.5% | – | CCOC(=O)c1cnc2c(N)cccc2c1NCc1ccc(OC)cc1 [Example 33, 8-Amino-4-(4-methoxy-benzylamino)-quinoline-3-carboxylic acid ethyl ester] |
| – | 16 µM | 83.9% | – | CCOC(=O)c1cnc2c(N)cccc2c1NCc1cccc(OC)c1 [Example 34, 8-Amino-4-(3-methoxy-benzylamino)-quinoline-3-carboxylic acid ethyl ester] |
| – | 13.6 µM | 91.5% | superior activity | CCOC(=O)c1cnc2c(N)cccc2c1NCCOC [Example 35, 8-Amino-4-(2-methoxy-ethylamino)-quinoline-3-carboxylic acid ethyl ester] |
| – | 15.3 µM | 82.1% | – | CCOC(=O)c1cnc2c(N)cccc2c1NCc1ccc(C)cc1 [Example 37, 8-Amino-4-(4-methyl-benzylamino)-quinoline-3-carboxylic acid ethyl ester] |
| – | 17 µM | 82.9% | – | CCOC(=O)c1cnc2c(N)cccc2c1NCc1ccc(Cl)cc1 [Example 42, 8-Amino-4-(4-chloro-benzylamino)-quinoline-3-carboxylic acid ethyl ester] |
| – | 27 µM | 54.7% | – | CCOC(=O)c1cnc2c(N)cccc2c1NCc1ccc(Cl)cc1Cl [Example 43, 8-Amino-4-(2,4-dichloro-benzylamino)-quinoline-3-carboxylic acid ethyl ester] |
| – | – | 76.8% | – | CCCOC(=O)c1cnc2c(N)cccc2c1NCc1ccccn1 [Example 60, 8-Amino-4-[(pyridine-2-ylmethyl)-amino]-quinoline-3-carboxylic acid propyl ester] |
| – | – | 81.4% | – | CC(C)OC(=O)c1cnc2c(N)cccc2c1NCc1ccccn1 [Example 61, 8-Amino-4-[(pyridin-2-ylmethyl)-amino]-quinoline-3-carboxylic acid isopropyl ester] |

The remaining lines, values behind:

| Compound | %-Inhibition (caspase-3 activity, at 20 uM) | IC50 | inhibition at 20 µM (caspase-3 activity, at 20 uM) | inhibitory activity against caspase-3 (in words) |
| --- | --- | --- | --- | --- |
| CN1C(=O)C(=O)c2cc(S(=O)(=O)N3CCC[C@H]3COc3ccccc3)ccc21 [(S)-1-methyl-5-{1-[2-(phenoxymethyl)pyrrolidinyl]sulfonyl} isatin, reference compound] | 76.8% | – | – | – |
| CCOC(=O)c1cnc2c(N)cccc2c1NC1CCCCC1 [Example 18, 8-Amino-4-cyclohexylamino-quinoline-3-carboxylic acid ethyl ester] | – | 14.1 µM | 84.7% | – |
| CCOC(=O)c1cnc2c(N)cccc2c1NCc1ccc2c(c1)OCO2 [Example 23, 8-Amino-4-[(benzo[1,3]dioxol-5-ylmethyl)-amino]-quinoline-3-carboxylic acid ethyl ester] | – | 14.3 µM | 86% | – |
| CCOC(=O)c1cnc2c(N)cccc2c1NC(CC)COC (centres unmarked) [Example 25, 8-Amino-4-(1-methoxymethyl-propylamino)-quinoline-3-carboxylic acid ethyl ester] | – | 16.5 µM | 88.8% | – |
| CCCCNc1c(C(=O)OCC)cnc2c(N)cccc12 [Example 26, 8-Amino-4-butylamino-quinoline-3-carboxylic acid ethyl ester] | – | 15.4 µM | 88.9% | – |
| CCOC(=O)c1cnc2c(N)cccc2c1NCCc1ccccc1 [Example 38, 8-Amino-4-phenethylamino-quinoline-3-carboxylic acid ethyl ester] | – | 16.6 µM | 77.2% | – |
| CCOC(=O)c1cnc2c(N)cccc2c1NCCCc1ccccc1 [Example 39, 8-Amino-4-(3-phenyl-propylamino)-quinoline-3-carboxylic acid ethyl ester] | – | 16.4 µM | 78.8% | – |
| CCOC(=O)c1cnc2c(N)cccc2c1NCCCCc1ccccc1 [Example 40, 8-Amino-4-(4-phenyl-butylamino)-quinoline-3-carboxylic acid ethyl ester] | – | 16.4 µM | 81.7% | – |
| CCOC(=O)c1cnc2c(N)cccc2c1NCc1ccccc1Cl [Example 41, 8-Amino-4-(2-chloro-benzylamino)-quinoline-3-carboxylic acid ethyl ester] | – | 17.8 µM | 78.4% | – |
| CCOC(=O)c1cnc2c(N)cccc2c1NCc1cccc(OC)c1OC [Example 44, 8-Amino-4-(2,3-dimethoxy-benzylamino)-quinoline-3-carboxylic acid ethyl ester] | – | 18.1 µM | 72.1% | – |
| CCCNc1c(C(=O)OCC)cnc2c(N)cccc12 [Example 45, 8-Amino-4-propylamino-quinoline-3-carboxylic acid ethyl ester] | – | 16 µM | 85% | – |
| CCOC(=O)c1cnc2c(N)cccc2c1NCCc1ccccc1N [Example 46, 8-Amino-4-[2-(2-amino-phenyl)-ethylamino]-quinoline-3-carboxylic acid ethyl ester] | – | 16.2 µM | 83.8% | – |
| CCOC(=O)c1cnc2c(N)cccc2c1NCc1cc(OC)cc(OC)c1 [Example 47, 8-Amino-4-(3,5-dimethoxy-benzylamino)-quinoline-3-carboxylic acid ethyl ester] | – | 21.2 µM | 69.3% | – |
